Here are results for three sequences from patent publication US8697840B2, “Peptide inhibition of lung epithelial apoptosis and pulmonary fibrosis” (Board of Regents, The University of Texas System, priority 2008, dated 2014).

For test [1], the system named is bleomycin-induced lung epithelial cell (LEC) apoptosis. Description: TUNEL staining for apoptosis of lung sections of bleo-treated mice. In kind it is in vivo, mouse. Particulars: for Lung epithelial cell apoptosis: appearance of cells / Lung epithelial cell apoptosis: cell death: bleo-treated animals, peptide one day after bleo; for Lung epithelial cell apoptosis: appearance of cells: lung tissue day 21; for Lung epithelial cell apoptosis: cell death: lung tissue day 21, TUNEL. The procedure: The mice were sacrificed 24, 48 and 72 h later. Lungs were excised, inflated and fixed in formalin, and […] sections were analyzed by TUNEL staining. […]

A further test deals with cleaved PARP. Put plainly: IHC of lung sections of bleo-treated mice: cleaved PARP. In kind it is in vivo, mouse. Particulars: peptide 4.5 μM i.p. days 1 and 2, bleomycin 40 μg/50 μl intranasal day 2; up to 72 h. The procedure:
On day 2 mice were treated with bleomycin (40 μg/50μl) by intranasal instillation. Mice were sacrificed 24, 48 and 72 h after later, lungs were excised, inflated and fixed in formalin, and […] sections were analyzed by immunohistochemistry (IHC) using an antibody specific for cleaved PARP.
(§1) For immunohistochemical (IHC) analysis, lungs were inflated at constant pressure of 20 cm H2O, removed and fixed overnight in 2% paraformaldehyde in PBS. Tissue was dehydrated by passage through a standard alcohol series and was embedded in paraffin. 5 μm sections were deparaffinized with xylene followed by incubation with 100% and 95% alcohol. After 10 min of antigen retrieval, the slides were incubated with H2O2 for 30 min to quench endogenous peroxidase. Slides were incubated overnight with the respective antibodies in PBS containing 0.1% Tween 20 and further processed using Lab vision kit (Freemont Calif.).

For a further test, the system named is p53. Description: IHC of lung tissue of bleo-treated mice: p53. The test is classed as in vivo, mouse. Particulars: bleomycin-treated mice, 24-72 h. The procedure:
as §1
(§2) An IHC study was conducted to analyze lung tissue for expression p53, uPA, uPAR, PAI-1 and cleaved caspase 3 (Table 2). […] These IHC observations were confirmed by Western blotting (see Example II and FIG. 5).

The next test has as its system PAI-1. Description: IHC of lung tissue of bleo-treated mice: PAI-1. In kind it is in vivo, mouse. The conditions noted are these: bleomycin-treated mice, 24-72 h. The procedure:
as §1, §2

In test [2] the test system is bleo-induced lung injury in the mouse. Description: Lung hydroxyproline (collagen deposition) after bleo-induced lung injury. The test is classed as in vivo. Particulars: for bleomycin-induced collagen deposition (hPro content, % of control): 10 mM peptide i.p. osmotic pump 7 days after bleo. The procedure: (§3) FIGS. 10A and 10B are graphs showing the effect of PP-1 on fibrosis following bleo-induced lung injury in the mouse. […] 24 h after bleo, 0.1 ml osmotic pump filled with 10 mM PP-1 (designated “Bleo+PP” in Figures) or CP1 control scrambled peptide (“Bleo+CP1”) were implanted intraperitoneally. Lungs were harvested after 21 days, homogenized and the homogenates were subjected to the analysis of hydroxyproline or desmosine levels.
Anesthetized mice received intranasal bleomycin HCl solution containing 40 μg/50μl in sterile saline solution. After 24 h, 7 days or 14 days 10 mM PP-1 (“Bleo+PP-1”) or control peptide (Bleo+CP-1) were given ip using a 0.1 ml osmotic pump. Mice were sacrificed and lungs excised 21 days later. Lung homogenates were analyzed for hydroxyproline. Results are expressed a % of control hydroxyproline concentration.
Anesthetized mice received intranasal bleomycin HCl solution containing 40 μg/50 μl in sterile saline solution. After day 7, 10 mM peptide PP-2 (“Bleo+PP-2”) or control peptide (“Bleo+CP-2) were given intraperitoneally using a 0.1 ml osmotic pump. Lungs were excised after 21 days, lungs were homogenized and the homogenates were analyzed for hydroxyproline. Results are expressed a % of control hydroxyproline concentration.
The hPro content of the whole mouse lungs tissues were measured using the technique of Woessner J F, 1961, Arch. Biochem. Biophys. 93:440-7). Lung tissue from each animal was homogenized in 1.0 ml of extraction buffer. One ml 12N HCl was added, and the samples were hydrolyzed at 110° C. for 24 h. After cooling, 5 μl of the samples were mixed with 5 μl of citrate-acetate buffer (5% citric acid, 1.2% glacial acetic acid, 7.25% sodium acetate and 3.4% sodium hydroxide) and 100 μl of chloramine-T solution (1.4% chloramine-T, 10% N-propanol, and 80% citrate acetate buffer) in 96 well plates. The mixture was incubated for 20 min at room temperature. A total of 100 μl of Ehrlich's solution (2.5 g p-dimethylaminobenzaldehyde added to 9.3 ml of n-propanol and 3.9 ml of 70% perchloric acid) was added to each well and the plates incubated at 65° C. for 18 min. The absorbance of each sample was measured at 550 nm. Standard curves were generated for each experiment using a known concentration of reagent hPro. Results were expressed as % changes in hPro content (with total hPro content of saline-treated control mouse lungs considered 100%).
(§4) Lungs were harvested after 21 days, homogenized and the homogenates were subjected to the analysis of hydroxyproline as above (FIG. 10A) or desmosine (FIG. 10B). The effect of PP-1 on fibrosis in bleo-induced mouse lung injury was evaluated. Mice were treated with saline or 50 μg Bleo intranasally were implanted one day later with, 0.1 ml osmotic pumps i.p. The pumps were filled with either 10 mM (2.92 mg/100 μl) PP-1 (“Bleo+PP-1”) or control scrambled peptide CP-1 (“Bleo+CP-1”).

The test system is the same in test [3]. Put plainly: Lung desmosine (elastin) after bleo-induced lung injury. The test is classed as in vivo. Particulars: 50 μg Bleo intranasally; 10 mM peptide in 0.1 ml osmotic pump i.p. one day later; lungs after 21 days. On the procedure: as §3, §4
For test [4], the system named is bleo-induced collagen deposition in mouse lung. Description: Mason's Trichrome stain for collagen of lung sections of bleo-treated mice. The test is classed as in vivo. The conditions noted are these: for Collagen content in lung section: bleo-treated animals, peptide one day after bleo, day 21, trichrome stain. The procedure: FIG. 13 is a set of photomicrographs showing that PP-1 prevents bleo-induced collagen deposition in mouse lung. Mice were treated with bleo (50 μg/ml) by intranasal instillation followed by treatment with PP-1 (10 nM) or control peptide CP-1 on day 2. Lungs were excised on day 21, inflated and fixed in formalin, a sectioned into […] sections which were subjected to Mason's Trichrome stain (a three-color stain that stains cell nuclei red, collagen green or blue, and cytoplasm red). Blue staining indicates collagen deposition in bleo-treated lung sections.
(§5) FIGS. 14A & 14B is a series of photomicrographs of lung epithelial tissue stained with Mason's trichrome stain for collagen (FIG. 10A) and by TUNEL staining for apoptosis (FIG. 10B). Bleo-treated animals were instilled with either PP-1, PP-2 or control peptide CP-1 one day after bleo treatment, The lungs were removed on day 21, subjected to the staining procedures and examined for collagen accumulation or apoptosis.
Collagen deposition in mouse lung after bleo treatment was investigated. Mice were treated with bleo (50 μg/ml) by intranasal instillation followed by treatment with PP-1 (10 nM) (designated as PP in Figure) or control peptide CP-1 (designated CP in FIG. 13) on day 2. Lungs were excised on day 21, inflated and fixed in formalin, a sectioned into […] sections which were subjected to Mason's Trichrome stain (a three-color stain that stains cell nuclei red, collagen green or blue, and cytoplasm red).
(§6) A comparison was made of normal and bleo-treated lung, and the effect of PP-1 and PP-2 on the bleo-treated lungs were examined. Animals were treated with bleo and peptides as above. Lung tissue was removed at day 21 and stained with Mason's trichrome stain for collagen and subjected to TUNEL staining for apoptosis.

The next test deals with bleo-treated lung. Description: Histology of lung tissue of bleo-treated animals, pathological observations. In kind it is in vivo, mouse. Particulars: conclusion from Table 3, day 21.
Source text: as §5, §6

For test [5], the system named is uPAR-dependent adhesion of cells to vitronectin. The conditions noted are these: Wei Y et al., 1996, Science 273; cited from earlier work.
In test [6] the target is integrin-caveolin-uPAR complexes (Homo sapiens, UniProt Q03405). The conditions noted are these: at a concentration that blocked adhesion; Wei Y et al., 1996; cited from earlier work.
[7] abbreviates: bleomycin 40 μg/50 μl intranasal, lungs after 21 days.

Chain of integrin-caveolin-uPAR complexes (Q03405 23-305, one chain of several): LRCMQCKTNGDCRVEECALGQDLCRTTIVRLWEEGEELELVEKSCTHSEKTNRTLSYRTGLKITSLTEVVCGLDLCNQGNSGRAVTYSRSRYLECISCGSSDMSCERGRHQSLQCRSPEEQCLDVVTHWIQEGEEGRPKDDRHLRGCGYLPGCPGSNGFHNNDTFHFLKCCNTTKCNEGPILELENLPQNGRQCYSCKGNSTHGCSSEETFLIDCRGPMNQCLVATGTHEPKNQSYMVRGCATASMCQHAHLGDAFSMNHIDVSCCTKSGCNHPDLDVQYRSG

Turning to “WGIDKAFFTTSTVTYKWFRY [CP-1, scrambled control peptide for PP-1 with the same amino acid composition]”, in test [1], the “Lung epithelial cell apoptosis: appearance of cells” value is “Fibrotic cells,” and the “Lung epithelial cell apoptosis: cell death” value is 90% cell. Further, the “apoptosis (TUNEL positive cells)” value in test [1] (peptide 4.5 μM i.p. on day 1 and 2, bleomycin 40 μg/50 μl intranasal on day 2, 24, 48 and 72 h) is on record as “but not with control peptide, reversed bleomycin-induced apoptosis”. The “cleavage (degradation) of PARP in lung” value with cleaved PARP is “but not control peptide CP-1 reversed such PARP degradation”. The “p53 expression in lung tissue (IHC)” value in the test with p53 is “but not control peptide CP-1, blocked bleomycin induced p53 expression”. Besides, the “PAI-1 expression in lung tissue (IHC)” value in the test with PAI-1 was “but not control peptide (CP-1) reduced this PAI-1 expression”. The lung hydroxyproline levels result in test [2] (50 μg Bleo intranasally, 10 mM peptide in 0.1 ml osmotic pump i.p. one day later, lungs after 21 days) was “did not have this effect”. The “bleomycin-induced collagen deposition (hydroxyproline, % of control)” value in test [2] (bleomycin 40 μg/50 μl intranasal, 10 mM peptide i.p. osmotic pump after 24 h, 7 days or 14 days, lungs 21 days) is “but not control peptide CP-1 reversed bleomycin-induced increases in collagen deposition”. In [3], the lung desmosine levels result was “did not have this effect”. Besides, the “Collagen content in lung section” value in test [4] was “Increased”. Also, the “effect on bleo-induced lung injury / Bleo-damaged lung tissue” value in the test on bleo-treated lung is recorded as “did not have any discernible effect on Bleo-damaged lung tissue”.

As for “NYHYLESSMTALYTLGH [PP-2, initially disclosed as scrambled control for Peptide 25 of Wei Y et al]”, in test [1], the “Lung epithelial cell apoptosis: appearance of cells” value was “No fibrosis,” and the “Lung epithelial cell apoptosis: cell death” value is listed as 11% cell. Also, the “bleomycin-induced collagen deposition (hPro content, % of control)” value in test [2] (setting [7]) is given as “significantly suppressed collagen deposition”. Further, the “Collagen content in lung section” value in [4] was “Minimal”. In addition, the “development of bleo-induced lung fibrosis” value in test [4] (conclusion from Table 3, day 21) is listed as “prevented the development of bleo-induced lung fibrosis”. The “effect on bleo-induced lung injury / Bleo-damaged lung tissue” value in the test with bleo-treated lung was “protected LECs from bleo-induced lung injury”. In addition, the “uPAR-dependent adhesion of cells to vitronectin” value in test [5] is “but not its control (which is PP-2 here) inhibited uPAR-dependent adhesion of cells to vitronectin”. The “disruption of integrin-caveolin-uPAR complexes” value in [6] is “but not its control, disrupted integrin-caveolin-uPAR complexes”.

Regarding AESTYHHLSLGYMYTLN [CP-2], in test [1], the “Lung epithelial cell apoptosis: appearance of cells” value was “Fibrotic cells,” and the “Lung epithelial cell apoptosis: cell death” value is 90% cell. In test [2] (setting [7]), the “bleomycin-induced collagen deposition (hPro content, % of control)” value is reported as “but not its control peptide CP-2 reversed bleomycin induced increases in collagen deposition”. For the same sequence, the “Collagen content in lung section” value in test [4] was “Increased”. In the test with bleo-treated lung, the “effect on bleo-induced lung injury / Bleo-damaged lung tissue” value is on record as “did not have any discernible effect on Bleo-damaged lung tissue”. The “uPAR-dependent adhesion of cells to vitronectin” value in test [5] is on record as “inhibited uPAR-dependent adhesion of cells to vitronectin”. Further, the “disruption of integrin-caveolin-uPAR complexes” value in test [6] is listed as “disrupted integrin-caveolin-uPAR complexes”.
